Measurements: ChEMBL document CHEMBL5512603, “Development of de-novo coronavirus 3-chymotrypsin-like protease (3CLpro) inhibitors since COVID-19 outbreak: A strategy to tackle challenges of persistent virus infection” (Eur J Med Chem, 2024)

Columns and labels:
[1] = biological target: T1, Replicase polyprotein 1ab (Severe acute respiratory syndrome coronavirus 2, UniProt P0DTD1); assay: Inhibition of SARS-CoV-2 3CLp by mass spectrometry
[2] = Cytotoxicity against African green monkey Vero E6 cells; assay type: toxicity, cell-based, Vero C1008; details: chlorocebus sabaeus
[3] = biological target: T1, Replicase polyprotein 1ab; assay: Inhibition of 2019-nCoV-2 3CLp using fluorescent substrate by FRET assay
[4] = biological target: T1, Replicase polyprotein 1ab; assay: Inhibition of SARS-CoV-2 recombinant main protease; assay type: single protein
[5] = biological target: T1, Replicase polyprotein 1ab; assay: Inhibition of SARS-CoV-2 3CLp
[6] = biological target: Protein cereblon/Replicase polyprotein 1ab (Severe acute respiratory syndrome coronavirus 2, UniProt P0DTD1+Q96SW2); assay: PROTAC activity at SARS-CoV-2 Main protease/CRBN E3 ligase (unknown origin)
Protein cereblon/Replicase polyprotein 1ab, sequence (Q96SW2 whole entry, other chains not shown): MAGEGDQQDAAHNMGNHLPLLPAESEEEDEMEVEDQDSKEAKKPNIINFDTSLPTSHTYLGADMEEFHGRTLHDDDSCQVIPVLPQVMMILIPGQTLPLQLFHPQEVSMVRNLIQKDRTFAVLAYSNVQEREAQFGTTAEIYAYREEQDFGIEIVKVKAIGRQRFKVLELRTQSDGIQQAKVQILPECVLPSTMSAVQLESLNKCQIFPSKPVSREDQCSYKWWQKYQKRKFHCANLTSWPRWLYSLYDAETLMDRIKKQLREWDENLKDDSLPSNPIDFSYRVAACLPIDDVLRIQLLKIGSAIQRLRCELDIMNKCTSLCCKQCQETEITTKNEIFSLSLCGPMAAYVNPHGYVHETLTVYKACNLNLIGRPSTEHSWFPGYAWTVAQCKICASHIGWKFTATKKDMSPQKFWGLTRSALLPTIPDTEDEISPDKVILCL

[7] = biological target: T1, Replicase polyprotein 1ab; assay: Inhibition of SARS-CoV-2 3CLp using fluorescent substrate by FRET assay

Cc1cncc(-n2c(=O)nc(Nc3cc4cn(C)nc4cc3Cl)n(Cc3cc(C#N)c(F)cc3C)c2=O)c1
IC50 [1]: 35 nM

CC(C)(C)NC(=O)[C@@H](c1cccnc1)N(C(=O)c1cnco1)c1ccc(-c2ccccc2)cc1
CC50 [2]: 67000 nM | IC50 [3]: 4970 nM

Cn1cnc(Cn2c(=O)nc(Nc3cc4sc(N)nc4cc3Cl)n(Cc3cc(F)c(F)c(Cl)c3)c2=O)n1
IC50 [1]: < 1000 nM

O=c1[nH]cc(-c2cc(-c3cc(Cl)cc(OCCc4ccccc4)c3)c(=O)n(-c3cccnc3)c2)c(=O)[nH]1
IC50 [4]: 37 nM

Cn1cnc(Cn2c(=O)cc(Nc3cc4cn(C)nc4cc3F)n(Cc3cc(Cl)c(F)cc3F)c2=O)n1
IC50 [1]: 18 nM

N#Cc1ccccc1-c1cc(-c2cccc(Cl)c2)cn(-c2cccnc2)c1=O
IC50 [4]: 9990 nM

CC(C)(C)NC(=O)[C@@H](c1cnccn1)N(C(=O)c1ccco1)c1ccc(-c2ccccc2)cc1
CC50 [2]: > 200000 nM | IC50 [3]: 280 nM

Cn1cnc(Cn2c(=O)nc(Nc3cc4sc(NCC(F)F)nc4cc3Cl)n(Cc3cc(F)c(F)c(F)c3)c2=O)n1
IC50 [1]: < 1000 nM

Cn1cc2cc(/N=c3\[nH]c(=O)n(Cc4cn(CCCC(=O)Nc5cccc6c5C(=O)N(C5CCC(=O)NC5=O)C6)nn4)c(=O)n3Cc3cc(F)c(F)cc3F)c(Cl)cc2n1 (stereo unspecified)
IC50 [5]: > 100 nM | EC50 [6]: < 100 nM

C[C@H](NC(=O)[C@@H](c1cccnc1)N(C(=O)c1ccco1)c1ccc(-n2cccc2)cc1)c1ccccc1
CC50 [2]: > 200000 nM | IC50 [3]: 940 nM

Cc1cc(Cn2c(Nc3cc4cn(C)nc4cc3Cl)cc(=O)n(Cc3ncn(C)n3)c2=O)c(F)cc1F
IC50 [1]: 12 nM

C=C(Cl)C(=O)N(c1ccc(-c2ccccc2)cc1)[C@@H](C(=O)N[C@@H](C)c1ccccc1)c1cccnc1
IC50 [7]: 4220 nM

Cn1cc2cc(/N=c3\[nH]c(=O)n(Cc4nnn[nH]4)c(=O)n3Cc3cc(F)c(F)cc3F)c(Cl)cc2n1
IC50 [3]: 120 nM

Cn1cc2cc(/N=c3\[nH]c(=O)n(Cc4cn(CCOCCOCC(=O)Nc5cccc6c5C(=O)N(C5CCC(=O)NC5=O)C6=O)nn4)c(=O)n3Cc3cc(F)c(F)cc3F)c(Cl)cc2n1 (stereo unspecified)
IC50 [5]: < 100 nM | EC50 [6]: < 100 nM

COCCCc1cc(Cl)cc(-c2cc(-c3c[nH]c(=O)[nH]c3=O)cn(-c3cccnc3)c2=O)c1
IC50 [4]: 25 nM

CCn1nncc1Cn1c(=O)[nH]/c(=N\c2cc3cn(C)nc3cc2Cl)n(Cc2cc(F)c(F)cc2F)c1=O
IC50 [3]: 123 nM

Cn1cnc(Cn2c(=O)cc(Nc3cc4cn(C)nc4cc3C(F)(F)F)n(Cc3cc(Cl)c(Cl)cc3F)c2=O)n1
IC50 [1]: 14 nM

O=c1[nH]cc(-c2cc(-c3cc(Cl)cc(COc4ccccc4)c3)c(=O)n(-c3cccnc3)c2)c(=O)[nH]1
IC50 [4]: 128 nM

C[C@H](NC(=O)[C@@H](c1cccnc1)N(C(=O)CCl)c1ccc(-c2ccccc2)cc1)c1ccccc1
IC50 [7]: 50 nM

Cn1cc2cc(/N=c3\[nH]c(=O)n(Cc4cn(CCOCCOCCOCC(=O)Nc5cccc6c5C(=O)N(C5CCC(=O)NC5=O)C6)nn4)c(=O)n3Cc3cc(F)c(F)cc3F)c(Cl)cc2n1 (stereo unspecified)
IC50 [5]: > 100 nM | EC50 [6]: < 100 nM

Cn1cc2cc(/N=c3\[nH]c(=O)n(Cc4cn(CCCC(=O)Nc5cccc6c5C(=O)N(C5CCC(=O)NC5=O)C6=O)nn4)c(=O)n3Cc3cc(F)c(F)cc3F)c(Cl)cc2n1 (stereo unspecified)
IC50 [5]: < 100 nM | EC50 [6]: < 100 nM

CC(C)(C)c1ccc(N(C(=O)c2ccco2)[C@@H](C(=O)NC2CCCCC2)c2cccnc2)cc1
CC50 [2]: 18200 nM | IC50 [3]: 2390 nM

CCn1cc2cc(Nc3nc(=O)n(-c4cncc(Cl)c4)c(=O)n3Cc3cc(C#N)ccc3C)ccc2n1
IC50 [1]: 234 nM

Cn1cc2cc(/N=c3\[nH]c(=O)n(Cc4cn(CCCCCC(=O)Nc5cccc6c5C(=O)N(C5CCC(=O)NC5=O)C6)nn4)c(=O)n3Cc3cc(F)c(F)cc3F)c(Cl)cc2n1 (stereo unspecified)
IC50 [5]: < 100 nM | EC50 [6]: < 100 nM

Cn1cc2cc(/N=c3\[nH]c(=O)n(Cc4cn(CCOCC(=O)Nc5cccc6c5C(=O)N(C5CCC(=O)NC5=O)C6)nn4)c(=O)n3Cc3cc(F)c(F)cc3F)c(Cl)cc2n1 (stereo unspecified)
IC50 [5]: > 100 nM | EC50 [6]: < 100 nM

COc1ccc(Nc2nc(=O)n(Cc3ccc[nH]c3=O)c(=O)n2Cc2cc(F)c(F)c(F)c2)c(OC)c1
IC50 [1]: < 1000 nM

COc1cc(Cl)cc(-c2cc(-c3c[nH]c(=O)[nH]c3=O)cn(-c3cccnc3)c2=O)c1
IC50 [4]: 1000 nM

Cn1cc2cc(/N=c3\[nH]c(=O)n(Cc4cn(CCCCC(=O)Nc5cccc6c5C(=O)N(C5CCC(=O)NC5=O)C6=O)nn4)c(=O)n3Cc3cc(F)c(F)cc3F)c(Cl)cc2n1 (stereo unspecified)
IC50 [5]: < 100 nM | EC50 [6]: < 100 nM

CCn1nnnc1Cn1c(=O)[nH]/c(=N\c2cc3cn(C)nc3cc2Cl)n(Cc2cc(F)c(F)cc2F)c1=O
IC50 [3]: 160 nM

Cn1cc2cc(/N=c3\[nH]c(=O)n(Cc4cn(CCCCC(=O)Nc5cccc6c5C(=O)N(C5CCC(=O)NC5=O)C6)nn4)c(=O)n3Cc3cc(F)c(F)cc3F)c(Cl)cc2n1 (stereo unspecified)
IC50 [5]: < 100 nM | EC50 [6]: < 100 nM

Cn1cc2cc(/N=c3\[nH]c(=O)n(Cc4cn(CCCCCCC(=O)Nc5cccc6c5C(=O)N(C5CCC(=O)NC5=O)C6)nn4)c(=O)n3Cc3cc(F)c(F)cc3F)c(Cl)cc2n1 (stereo unspecified)
IC50 [5]: > 100 nM | EC50 [6]: < 100 nM

Cn1cc2cc(/N=c3\[nH]c(=O)n(Cc4cn(CCOCCOCC(=O)Nc5cccc6c5C(=O)N(C5CCC(=O)NC5=O)C6)nn4)c(=O)n3Cc3cc(F)c(F)cc3F)c(Cl)cc2n1 (stereo unspecified)
IC50 [5]: < 100 nM | EC50 [6]: < 100 nM
